Assay results from the NIST ThermoML archive (doi:10.1016/j.jct.2011.04.005).

Key:
[1] = Maximal bubble pressure
[2] = xn = mol fraction of the nth substance listed; conditions: Maximal bubble pressure

CCCCCCCCCCCCCC [tetradecane]
Conditions	surface tension liquid-gas [mN/m]
[1], 313.15 K	24.8

CCO [ethanol]
[1]
Conditions	surface tension liquid-gas [mN/m]
298.15 K	22.1
303.15 K	21.7
308.15 K	21.3
313.15 K	20.71
318.15 K	20.4

CCCCCCCCCC [decane]
[1]
Conditions	surface tension liquid-gas [mN/m]
303.15 K	22.9
308.15 K	22.5
318.15 K	21.66

CCCCCCCC [octane] + CCO
[2]
Conditions	surface tension liquid-gas [mN/m]
298.15 K, x2 = 0.099	20.91
298.15 K, x2 = 0.208	20.9
298.15 K, x2 = 0.294	20.79
298.15 K, x2 = 0.391	20.8
298.15 K, x2 = 0.512	20.75
298.15 K, x2 = 0.604	20.81
298.15 K, x2 = 0.707	20.9
298.15 K, x2 = 0.809	21.03
298.15 K, x2 = 0.871	21.19
298.15 K, x2 = 0.908	21.44
298.15 K, x2 = 0.955	21.69
308.15 K, x2 = 0.105	19.95
308.15 K, x2 = 0.162	19.83
308.15 K, x2 = 0.209	19.81
308.15 K, x2 = 0.31	19.73
308.15 K, x2 = 0.403	19.71
308.15 K, x2 = 0.5	19.72
308.15 K, x2 = 0.607	19.71
308.15 K, x2 = 0.707	19.86
308.15 K, x2 = 0.807	20.05
308.15 K, x2 = 0.904	20.39
308.15 K, x2 = 0.955	20.77
318.15 K, x2 = 0.103	18.96
318.15 K, x2 = 0.205	18.71
318.15 K, x2 = 0.345	18.64
318.15 K, x2 = 0.448	18.6
318.15 K, x2 = 0.598	18.63
318.15 K, x2 = 0.703	18.69
318.15 K, x2 = 0.809	18.83
318.15 K, x2 = 0.91	19.18
318.15 K, x2 = 0.958	19.85

CCCCCCCCCC [decane] + CCO
[2]
Conditions	surface tension liquid-gas [mN/m]
303.15 K, x2 = 0.034	22.85
303.15 K, x2 = 0.101	22.6
303.15 K, x2 = 0.189	22.3
303.15 K, x2 = 0.29	22.1
303.15 K, x2 = 0.395	21.95
303.15 K, x2 = 0.492	21.85
303.15 K, x2 = 0.59	21.75
303.15 K, x2 = 0.696	21.65
303.15 K, x2 = 0.801	21.55
303.15 K, x2 = 0.907	21.45
303.15 K, x2 = 0.959	21.44
303.15 K, x2 = 0.982	21.43
308.15 K, x2 = 0.076	22.25
308.15 K, x2 = 0.173	22
308.15 K, x2 = 0.286	21.8
308.15 K, x2 = 0.373	21.68
308.15 K, x2 = 0.486	21.54
308.15 K, x2 = 0.593	21.46
308.15 K, x2 = 0.695	21.4
308.15 K, x2 = 0.8	21.29
308.15 K, x2 = 0.902	21.2
308.15 K, x2 = 0.954	21.17
318.15 K, x2 = 0.067	21.51
318.15 K, x2 = 0.16	21.25
318.15 K, x2 = 0.272	21
318.15 K, x2 = 0.366	20.83
318.15 K, x2 = 0.472	20.67
318.15 K, x2 = 0.585	20.54
318.15 K, x2 = 0.698	20.48
318.15 K, x2 = 0.803	20.37
318.15 K, x2 = 0.907	20.3
318.15 K, x2 = 0.958	20.36

CCCCCCCCCCCC [dodecane]
[1]
Conditions	surface tension liquid-gas [mN/m]
298.15 K	24.9
303.15 K	24.73

CCCCCCCCCCCC [dodecane] + CCO
surface tension liquid-gas [mN/m], [2]
Conditions	298.15 K	303.15 K
x2 = 0.055	24.87	24.6
x2 = 0.09	–	24.5
x2 = 0.097	24.72	–
x2 = 0.174	–	24.05
x2 = 0.184	24.33	–
x2 = 0.247	–	23.7
x2 = 0.264	23.95	–
x2 = 0.332	–	23.35
x2 = 0.366	23.47	–
x2 = 0.443	–	22.92
x2 = 0.472	23.1	–
x2 = 0.571	–	22.65
x2 = 0.589	22.97	–
x2 = 0.684	–	22.52
x2 = 0.692	22.92	–
x2 = 0.795	–	22.39
x2 = 0.799	22.78	–
x2 = 0.903	–	22.16
x2 = 0.905	22.57	–
x2 = 0.951	22.38	21.98

CCCCCCCC [octane]
[1]
Conditions	surface tension liquid-gas [mN/m]
298.15 K	21.1
308.15 K	20.2
318.15 K	19.2

CCCCCCCCCCCCCC [tetradecane] + CCO
[2], 313.15 K
Conditions	surface tension liquid-gas [mN/m]
x2 = 0.054	24.67
x2 = 0.072	24.67
x2 = 0.143	24.53
x2 = 0.191	24.25
x2 = 0.3	23.3
x2 = 0.412	22.52
x2 = 0.522	21.98
x2 = 0.62	21.76
x2 = 0.702	21.8
x2 = 0.8	21.66
x2 = 0.9	21.4
x2 = 0.945	21.17
x2 = 0.967	21.02
x2 = 0.988	20.82
